For the test, the target named is T1, intracellular kinase domain of human IGF-1R (GST fusion protein) (Homo sapiens, UniProt P08069).
T1 construct: IGFRK and IRK enzyme used for the assay was intracellular kinase domain of human IGF-1R; GST; made in house
T1 sequence (P08069 999-1274 limits assumed): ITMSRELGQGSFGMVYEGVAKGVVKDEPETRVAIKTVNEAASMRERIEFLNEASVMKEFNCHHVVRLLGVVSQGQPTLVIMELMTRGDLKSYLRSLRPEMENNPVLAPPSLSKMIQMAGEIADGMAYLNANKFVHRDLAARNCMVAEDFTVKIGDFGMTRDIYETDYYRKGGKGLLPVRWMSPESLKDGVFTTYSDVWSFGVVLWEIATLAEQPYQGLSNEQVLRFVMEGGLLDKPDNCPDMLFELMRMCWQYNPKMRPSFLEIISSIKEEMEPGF
The test can be described thus: In vitro IGF-1R kinase assay (HTRF). Type of test: biochemical. The settings on record: ATP 20 μM, IGFRK 0.25 nM. On the procedure: The in vitro kinase assays using IGF-1R and IR kinase GST fusion proteins were conducted using a homogeneous time-resolved fluorescence (HTRF) format. Kinase reactions were carried out in a 384-well plate format in a final volume of 20 μL. The standard enzyme reaction buffer consisted of 50 mM Tris HCL (pH: 7.4), 1 mM EGTA, 10 mM MgCl2, 2 mM DTT, 0.01% Tween-20, IGF-1R/IR kinase enzyme, poly GT peptide substrate (Perkin Elmer [Ulight Glu-Tyr (4:1)]n) and ATP [concentration equivalent to Kmapp] […] Briefly, 2.5 μL enzyme and 2.5 μL inhibitor was preincubated for 10 minutes at 23° C. followed by the addition of 2.5 μL of poly GT substrate (final concentration of 50 nM). Reaction was initiated with the addition of 2.5 μL of ATP (final concentration of 20 μM for IGF-1R assay and 10 μM for IR assay). After 1 hour incubation at 23° C., the kinase reaction was stopped with the addition of 5 μL EDTA (final concentration of 10 mM in 20 μL). Europium cryptate—labeled antiphosphotyrosine antibody PY20 (5 μL) was added (final concentration of 2 nM) and the mixture was allowed to equilibrate for 1 hour at 23° C. followed by reading the plate in an Envision plate reader.
The intensity of light emission at 665 nm was directly proportional to the level of substrate phosphorylation. The IC50 values for inhibitors were determined by a four-parameter sigmoidal curve fit (Sigma plot or Graph pad).
IGFRK and IRK enzyme used for the assay was intracellular kinase domain of human IGF-1R and human IR cloned and expressed as GST fusion proteins using the baculovirus expression system and purified using glutathione—Sepharose column.
The compound `NC(=O)c1[nH]c2ccc(Cl)cc2c1S(=O)(=O)N1CCO[C@H](COc2ccccc2-c2ccccc2F)C1` [Compound 62, (S)-5-chloro-3-((2-(((2′-fluoro-[1,1′-biphenyl]-2-yl)oxy)methyl)morpholino)sulfonyl)-1H-indole-2-carboxamide] registered an IC50 of more than 1000 nM.
Compound `Cn1nc(-c2ccccc2)cc1OC[C@@H]1CN(S(=O)(=O)c2c(C(N)=O)[nH]c3ccc(Cl)cc23)CCO1` [Compound 92, (S)-5-chloro-3-((2-(((1-methyl-3-phenyl-1H-pyrazol-5-yl)oxy)methyl)morpholino)sulfonyl)-1H-indole-2-carboxamide] displayed an IC50 of more than 100 nM.
The value for `NC(=O)c1[nH]c2ccc(Cl)cc2c1S(=O)(=O)N1CCO[C@H](COc2cccc(-c3ccc(F)nc3)c2)C1` [Compound 8, (S)-5-chloro-3-((2-((3-(6-fluoropyridin-3-yl)phenoxy)methyl)morpholino)sulfonyl)-1H-indole-2-carboxamide] was 15.5 nM; that for `Cc1cc(OC[C@@H]2CN(S(=O)(=O)c3c(C(N)=O)[nH]c4ccc(Cl)cc34)CCO2)ccc1-c1cncnc1` [Compound 71, (S)-5-chloro-3-((2-((3-methyl-4-(pyrimidin-5-yl)phenoxy)methyl)morpholino)sulfonyl)-1H-indole-2-carboxamide] was 5.3 nM.
The compound `NC(=O)c1[nH]c2ccc(Cl)cc2c1S(=O)(=O)N1CCO[C@H](COc2ccccc2-c2cccc(F)c2)C1` [Compound 64, (S)-5-chloro-3-((2-(((3′-fluoro-[1,1′-biphenyl]-2-yl)oxy)methyl)morpholino)sulfonyl)-1H-indole-2-carboxamide] yielded an IC50 of more than 1000 nM.
“(S)-5-chloro-3-((2-((5-(4-methoxyphenyl)pyridin-3-yl)oxy)methyl)morpholino)sulfonyl)-1H-indole-2-carboxamide [Compound 74]” registered an IC50 of more than 1000 nM.
Compound `NC(=O)c1[nH]c2ccc(Cl)cc2c1S(=O)(=O)N1CCO[C@H](COc2ccccc2-c2ccncc2)C1` [Compound 56, (S)-5-chloro-3-((2-((2-(pyridin-4-yl)phenoxy)methyl)morpholino)sulfonyl)-1H-indole-2-carboxamide] registered an IC50 of more than 1000 nM.
In turn, `NC(=O)c1[nH]c2ccc(Cl)cc2c1S(=O)(=O)N1CCO[C@H](COc2ccc(-c3ccnc(F)c3)cc2)C1` [Compound 45, (S)-5-chloro-3-((2-((4-(2-fluoropyridin-4-yl)phenoxy)methyl)morpholino)sulfonyl)-1H-indole-2-carboxamide] returned an IC50 of 12.1 nM.
Under `COc1ccc(-c2ccc(OC[C@@H]3CN(S(=O)(=O)c4c(C(N)=O)[nH]c5ccc(Cl)cc45)CCO3)cc2)cn1` [Compound 37, (S)-5-chloro-3-((2-((4-(6-methoxypyridin-3-yl)phenoxy)methyl)morpholino)sulfonyl)-1H-indole-2-carboxamide] stands 166 nM.
The value for `CN(C)c1ccc(-c2cccc(OC[C@@H]3CN(S(=O)(=O)c4c(C(N)=O)[nH]c5ccc(Cl)cc45)CCO3)c2)cn1` [Compound 5, (S)-5-chloro-3-((2-((3-(6-(dimethylamino)pyridin-3-yl)phenoxy)methyl)morpholino)sulfonyl)-1H-indole-2-carboxamide] was 30.4 nM.
Take `COc1ccc(-c2ccccc2OC[C@@H]2CN(S(=O)(=O)c3c(C(N)=O)[nH]c4ccc(Cl)cc34)CCO2)cn1` [Compound 61, (S)-5-chloro-3-((2-((2-(6-methoxypyridin-3-yl)phenoxy)methyl)morpholino)sulfonyl)-1H-indole-2-carboxamide]: the IC50 is more than 1000 nM.
The compound `COc1cc(-c2cccc(OC[C@@H]3CN(S(=O)(=O)c4c(C(N)=O)[nH]c5ccc(Cl)cc45)CCO3)c2)ccn1` [Compound 18, (S)-5-chloro-3-((2-((3-(2-methoxypyridin-4-yl)phenoxy)methyl)morpholino)sulfonyl)-1H-indole-2-carboxamide] displayed an IC50 of 7.3 nM.
The value for `Cc1ccccc1-c1cc(OC[C@@H]2CN(S(=O)(=O)c3c(C(N)=O)[nH]c4ccc(Cl)cc34)CCO2)ccc1C` [Compound 24, (S)-5-chloro-3-((2-(((2′,6-dimethyl-[1,1′-biphenyl]-3-yl)oxy)methyl)morpholino)sulfonyl)-1H-indole-2-carboxamide] was 293 nM; that for `Cc1cccc(-c2cccc(OC[C@@H]3CN(S(=O)(=O)c4c(C(N)=O)[nH]c5ccc(Cl)cc45)CCO3)c2)c1` [Compound 14, (S)-5-chloro-3-((2-(((3′-methyl-[1,1′-biphenyl]-3-yl)oxy)methyl)morpholino)sulfonyl)-1H-indole-2-carboxamide] was more than 100 nM.
In the case of `COc1ccc(-c2cc(OC[C@@H]3CN(S(=O)(=O)c4c(C(N)=O)[nH]c5ccc(Cl)cc45)CCO3)ccc2C)cn1` [Compound 25, (S)-5-chloro-3-((2-((3-(6-methoxypyridin-3-yl)-4-methylphenoxy)methyl)morpholino)sulfonyl)-1H-indole-2-carboxamide], the IC50 was found to be 53.3 nM.
The compound `Cc1cc(OC[C@@H]2CN(S(=O)(=O)c3c(C(N)=O)[nH]c4ccc(Cl)cc34)CCO2)ccc1-c1ccc(Cl)nc1` [Compound 88, (S)-5-chloro-3-((2-((4-(6-chloropyridin-3-yl)-3-methylphenoxy)methyl)morpholino)sulfonyl)-1H-indole-2-carboxamide] yielded an IC50 of 67 nM.
`NC(=O)c1[nH]c2ccc(Cl)cc2c1S(=O)(=O)N1CCO[C@H](COc2cncc(-c3cc(C(F)(F)F)ccc3F)c2)C1` [Compound 75]: the IC50 was more than 1000 nM.
The value for `NC(=O)c1[nH]c2ccc(Cl)cc2c1S(=O)(=O)N1CCO[C@H](COc2cncc(-c3ccccc3)c2)C1` [Compound 76, (S)-5-chloro-3-((2-(((5-phenylpyridin-3-yl)oxy)methyl)morpholino)sulfonyl)-1H-indole-2-carboxamide] was more than 1000 nM; that for `NC(=O)c1[nH]c2ccc(Cl)cc2c1S(=O)(=O)N1CCO[C@H](COc2ccc(-c3ccccc3)cc2)C1` [Compound 33, (S)-3-((2-(([1,1′-biphenyl]-4-yloxy)methyl)morpholino)sulfonyl)-5-chloro-1H-indole-2-carboxamide] was 30.2 nM.
Under `Cc1ccc(-c2cccc(OC[C@@H]3CN(S(=O)(=O)c4c(C(N)=O)[nH]c5ccc(Cl)cc45)CCO3)c2)cn1` [Compound 4, (S)-5-chloro-3-((2-((3-(6-methylpyridin-3-yl)phenoxy)methyl)morpholino)sulfonyl)-1H-indole-2-carboxamide] stands 11.8 nM; under `NC(=O)c1[nH]c2ccc(Cl)cc2c1S(=O)(=O)N1CCO[C@H](COc2cccc(-c3ccnc(F)c3)c2)C1` [Compound 13, (S)-5-chloro-3-((2-((3-(2-fluoropyridin-4-yl)phenoxy)methyl)morpholino)sulfonyl)-1H-indole-2-carboxamide], 3.4 nM; under `NC(=O)c1[nH]c2ccc(Cl)cc2c1S(=O)(=O)N1CCO[C@H](COc2cccc3cccnc23)C1` [Compound 90, (S)-5-chloro-3-((2-((quinolin-8-yloxy)methyl)morpholino)sulfonyl)-1H-indole-2-carboxamide], more than 100 nM.
As to `NC(=O)c1[nH]c2ccc(Cl)cc2c1S(=O)(=O)N1CCO[C@H](COc2cccc(-c3cccc(F)c3)c2)C1` [Compound 12, (S)-5-chloro-3-((2-(((3′-fluoro-[1,1′-biphenyl]-3-yl)oxy)methyl)morpholino)sulfonyl)-1H-indole-2-carboxamide], the IC50 is more than 100 nM.
Under `COc1cc(-c2ccc(OC[C@@H]3CN(S(=O)(=O)c4c(C(N)=O)[nH]c5ccc(Cl)cc45)CCO3)cc2)ccn1` [Compound 47, (S)-5-chloro-3-((2-((4-(2-methoxypyridin-4-yl)phenoxy)methyl)morpholino)sulfonyl)-1H-indole-2-carboxamide] stands less than 100 nM; under `Cc1cc(OC[C@@H]2CN(S(=O)(=O)c3c(C(N)=O)[nH]c4ccc(Cl)cc34)CCO2)ccc1-c1cccnc1` [Compound 66, (S)-5-chloro-3-((2-((3-methyl-4-(pyridin-3-yl)phenoxy)methyl)morpholino)sulfonyl)-1H-indole-2-carboxamide], 18.7 nM; under `NC(=O)c1[nH]c2ccc(Cl)cc2c1S(=O)(=O)N1CCO[C@H](COc2ccc(-c3ccccc3)nc2)C1` [Compound 79, (S)-5-chloro-3-((2-(((6-phenylpyridin-3-yl)oxy)methyl)morpholino)sulfonyl)-1H-indole-2-carboxamide], 25.4 nM.
The value for `COc1ccccc1-c1ccc(OC[C@@H]2CN(S(=O)(=O)c3c(C(N)=O)[nH]c4ccc(Cl)cc34)CCO2)cc1` [Compound 36, (S)-5-chloro-3-((2-(((2′-methoxy-[1,1′-biphenyl]-4-yl)oxy)methyl)morpholino)sulfonyl)-1H-indole-2-carboxamide] was 81 nM; that for `COc1ccc(-c2ccc(OC[C@@H]3CN(S(=O)(=O)c4c(C(N)=O)[nH]c5ccc(Cl)cc45)CCO3)cc2C)cn1` [Compound 69, (S)-5-chloro-3-((2-((4-(6-methoxypyridin-3-yl)-3-methylphenoxy)methyl)morpholino)sulfonyl)-1H-indole-2-carboxamide] was more than 100 nM.

The record behind these values is patent US20150119394A1, “Insulin-Like Growth Factor-1 Receptor Inhibitors” (Merck Sharp & Dohme Corp., priority 2012, published 2015).
